From ChEMBL document CHEMBL5241090, “A comprehensive overview of β-carbolines and its derivatives as anticancer agents” (Eur J Med Chem, 2021)
In brackets after ≈: the same amount, converted by molar mass.

Assays:
Assay type in all cases: functional, cell-based
HL-60 = assay: Cytotoxicity against human HL-60 cells; conditions: Homo sapiens, HL-60; read-out: IC50
HepG2 = assay: Cytotoxicity against human HepG2 cells after 48 hrs incubation by SRB assay; conditions: HepG2, 48 h
Hep 3B2 = assay: Cytotoxicity against human Hep3B cells after 48 hrs incubation by SRB assay
HCT-116 [1] = assay: Cytotoxicity against human HCT-116 cells incubated for 48 hrs by neutral red dye based assay; conditions: HCT-116, 48 h
A549 [2] = assay: Cytotoxicity against human A549 cells incubated for 48 hrs by neutral red dye based assay; conditions: A549, 48 h
MCF7 [3] = assay: Cytotoxicity against human MCF7 cells incubated for 48 hrs by neutral red dye based assay; conditions: MCF7, 48 h
SK-OV-3 = assay: Antiproliferative activity against human SK-OV-3 cells
A2780 = assay: Antiproliferative activity against human A2780 cells
[4] = Cytotoxicity against mouse P388 cells
L5178Y = assay: Cytotoxicity against mouse L5178Y cells incubated 72 hrs; conditions: time 72 hrs, read-out: ED50 (the source's name)
KB [5] = assay: Cytotoxicity against human KB cells; conditions: Homo sapiens, KB; read-out: IC50
HCT-116 [6] = assay: Cytotoxicity against human HCT-116 cells
MCF7 [7] = assay: Cytotoxicity against human MCF7 cells
[8] = system: Panel NCI-60 (60 carcinoma cell lines); assay: Cytotoxicity against human Panel NCI-60 (60 carcinoma cell lines)
KB [9] = assay: Cytotoxicity against human Vincristine-resistant KB cells; conditions: pooled result: one value given for 6 cell lines, strains, targets or settings
CNE-2 = assay: Cytotoxicity against human CNE-2 cells incubated for 48 hrs by MTT assay; conditions: CNE-2, 48 h
A549 [10] = assay: Cytotoxicity against human A549 cells
NCI-H1299 = assay: Cytotoxicity against human NCI-H1299 cells
L1210 = assay: Cytotoxicity against mouse L1210 cells
HeLa = assay: Cytotoxicity against human HeLa cells

With `COc1ccc2c3c([nH]c2c1)-c1c(C(=O)c2ncc4ccccc4n2)ccn1CC3` as the molecule, how does the IC50 (HL-60) read?
Its IC50 is 13.6 µM.

Which IC50 (HepG2) does the source give for `COc1cnc(C(=O)[C@@H](CC(=O)c2nccc3c2[nH]c2ccccc23)OC)c2[nH]c3ccccc3c12` here?
The IC50 was greater than 50 µM.

And the IC50 (Hep 3B2)?
Its IC50 is 31.4 µM.

What does the source list for `O=C1NCCc2c1[nH]c1ccccc21`?
IC50 (HCT-116 [1]): 7.45 µg/mL (≈ 40 µM); IC50 (A549 [2]): 10.1 µg/mL (≈ 54.3 µM); IC50 (MCF7 [3]): 8.27 µg/mL (≈ 44.4 µM)

Which IC50 (SK-OV-3) does the source give for `C=Cc1ncc(OC)c2c1[nH]c1c(OC)cccc12` here?
The IC50 was 11.9 µg/mL.

And the IC50 (A2780)?
Its IC50 is 2.02 µg/mL.

Which IC50 [4] does the source give for `C1=C\CC[C@]23CN4CCCC/C=C\CC[C@@]5(O[C@H]5[C@@H](c5nccc6c5[nH]c5ccccc56)[C@@H]2CC4)[C@@H]3NCCCC/1` [MANZAMINE B] here?
Its IC50 is 6 µg/mL (≈ 10.9 µM).

With `[O-][n+]1ccc2c([nH]c3ccccc32)c1C1=C[C@@]2(O)CC/C=C\CCCCN3CC[C@@H]1[C@]1(CC4/C=C\CCCCN4[C@H]12)C3` (some centres undefined) as the molecule, how does the EC50 (L5178Y) read?
The EC50 was 1.6 µg/mL (≈ 2.83 µM).

With `COc1cnc(C(=O)[C@@H](Cc2nccc3c2[nH]c2ccccc23)OC)c2[nH]c3ccccc3c12` as the molecule, how does the IC50 (HepG2) read?
The IC50 was 33.9 µM.

And the IC50 (Hep 3B2)?
Its IC50 is greater than 50 µM.

For `Oc1ccc2[nH]c3c(C4=C[C@@]5(O)CC/C=C\CCCCN6CC[C@@H]4[C@@]4(C6)CC67CCC(CCCN6[C@H]45)O7)nccc3c2c1`, which IC50 (KB [5]) is on record?
The IC50 was 7.9 µg/mL (≈ 13.6 µM).

For `C=Cc1ncc(OC)c2c3ccccc3n(OC)c12`, which IC50 (SK-OV-3) is on record?
Its IC50 is 66.6 µM.

What about the IC50 (A2780) of the same molecule?
The IC50 was 14.8 µM.

Which IC50 (HCT-116 [6]) does the source give for `CNc1nccc(-c2nccc3c2[nH]c2ccccc23)n1` here?
The IC50 was 2.9 µM.

And the IC50 (MCF7 [7])?
Its IC50 is 4.33 µM.

With `C1=C\CCCCN(CCc2nccc3c2[nH]c2ccccc23)CCCC/1` [MANZAMINE C] as the molecule, how does the IC50 [4] read?
Its IC50 is 3 µg/mL (≈ 8.63 µM).

For `COc1ccc(-c2nc(-c3nc4ccc(OC)cc4[nH]3)cc3c2[nH]c2ccccc23)cc1`, which IC50 [8] is on record?
The IC50 was 0.3 µM.

With `CC(C)CC(N)c1nccc2c1[nH]c1cc(Br)ccc12` (centres undefined) [EUDISTALBIN A] as the molecule, how does the IC50 (KB [5]) read?
Its IC50 is 3.2 µg/mL (≈ 9.63 µM).

Which results are given for `COc1ccc2c3ccnc4ccc(=O)n(c2c1)c43`?
IC50 (KB [9]): 1.4 µg/mL (≈ 5.59 µM); IC50 [4]: 1.4 µg/mL (≈ 5.59 µM)

With `COc1c(OC)c2nccc3c4cc(O)ccc4n(c1=O)c23` as the molecule, how does the IC50 (CNE-2) read?
Its IC50 is 11.6 µg/mL (≈ 39.2 µM).

With `Fc1ccc(-c2nc(-c3nc4ccc(Cl)cc4[nH]3)cc3c2[nH]c2ccccc23)cc1` as the molecule, how does the IC50 [8] read?
The IC50 was 0.3 µM.

What does the source list for `O=c1ccc2nccc3c4ccc(O)cc4n1c23`?
IC50 (KB [9]): 1.5 µg/mL (≈ 6.35 µM); IC50 [4]: 1.5 µg/mL (≈ 6.35 µM)

Which IC50 (HepG2) does the source give for `COc1cnc(C(=O)[C@H](Cc2nccc3c2[nH]c2ccccc23)OC)c2[nH]c3ccccc3c12` here?
Its IC50 is 27.5 µM.

And the IC50 (Hep 3B2)?
The IC50 was 46.2 µM.

Which results are given for `CNC(=O)CCCc1nccc2c1[nH]c1ccccc12`?
IC50 (HCT-116 [1]): 0.67 µg/mL (≈ 2.51 µM); IC50 (A549 [2]): 2.15 µg/mL (≈ 8.04 µM); IC50 (MCF7 [3]): 3.5 µg/mL (≈ 13.1 µM)

Which IC50 (KB [9]) does the source give for `COc1ccc2c3cc[n+]([O-])c4ccc(=O)n(c2c1)c34` here?
The IC50 was 3.8 µg/mL (≈ 14.3 µM).

And the IC50 [4]?
Its IC50 is 3.8 µg/mL (≈ 14.3 µM).

What does the source list for `CC(=O)c1nc(C(=O)NCCc2ccccc2)cc2c1[nH]c1ccccc12`?
IC50 (HCT-116 [6]): 37.4 µM; IC50 (A549 [10]): 37.4 µM; IC50 (NCI-H1299): 37.4 µM

What does the source list for `COc1nccc2c1[nH]c1ccccc12`?
IC50 (SK-OV-3): 22.3 µg/mL; IC50 (A2780): 9.72 µg/mL

Which IC50 (HCT-116 [1]) does the source give for `Nc1nccc(C2=NCCc3c2[nH]c2ccccc32)n1` here?
Its IC50 is 0.59 µg/mL (≈ 2.24 µM).

What about the IC50 (A549 [2]) of the same molecule?
Its IC50 is 1.92 µg/mL (≈ 7.29 µM).

And the IC50 (MCF7 [3])?
The IC50 was 2.81 µg/mL (≈ 10.7 µM).

With `O[C@]12C=C(C3NCCc4c3[nH]c3ccccc43)[C@@H]3CCN(CCCC/C=C\CC1)C[C@@]31CC/C=C\CCCCN[C@H]12` (some centres undefined) as the molecule, how does the IC50 (L1210) read?
Its IC50 is 1.3 µg/mL (≈ 2.34 µM).

With `CC(=O)c1nc(C(=O)NCCc2c[nH]c3ccccc23)cc2c1[nH]c1ccccc12` [MARINACARBOLINE D] as the molecule, how does the IC50 (HCT-116 [6]) read?
The IC50 was 15 µM.

What about the IC50 (A549 [10]) of the same molecule?
The IC50 was 15 µM.

What about the IC50 (NCI-H1299) of the same molecule?
The IC50 was 15 µM.

Which EC50 (L5178Y) does the source give for `O[C@]12C=C(c3nccc4c3[nH]c3ccccc34)[C@@H]3CCN(CCCC/C=C\CC1)C[C@@]31CC34CCC(CCCN3[C@H]12)O4` here?
The EC50 was 1.8 µg/mL (≈ 3.19 µM).

Which IC50 (L1210) does the source give for `O[C@H]1[C@H]2[C@@H]3c4[nH]c5ccccc5c4CCN3CN3CCCC/C=C\CC[C@@]45CN(CCCC/C=C\CC[C@@]1(O)[C@H]34)CC[C@@H]25` here?
The IC50 was 4.4 µg/mL (≈ 7.52 µM).

What does the source list for `COc1cnc(C(=O)[C@H](CC(=O)c2nccc3c2[nH]c2ccccc23)OC)c2[nH]c3ccccc3c12`?
IC50 (HepG2): 43.9 µM; IC50 (Hep 3B2): 18.6 µM

For `CC(=O)c1nc(C(=O)NCCc2ccc(O)cc2)cc2c1[nH]c1ccccc12`, which IC50 (HCT-116 [6]) is on record?
The IC50 was 37.9 µM.

And the IC50 (A549 [10])?
The IC50 was 37.9 µM.

And the IC50 (NCI-H1299)?
The IC50 was 37.9 µM.

Which IC50 (A549 [10]) does the source give for `COc1ccccc1-c1c(-c2ccccc2)ncc2[nH]c3ccccc3c12` here?
The IC50 was 8.2 µM.

What about the IC50 (HeLa) of the same molecule?
The IC50 was 20.8 µM.
